Here are results for three molecules from patent publication US9475783B2, “Antimicrobial agents” (Rutgers, the State University of New Jersey, priority 2012, dated 2016).

Data set [1] is classed as in vivo. The following applies: formulated in 20% DMA, 40% proplyeneglycol in 8% Cremophor-EL; apparent embolitic effect from drug precipitation. The protocol:
The literature vehicle reported for formulation of 5-chloro-2-(2,4-difluoro-3-aminocarbonylphenoxy)methylpyridylthiazole for i.v. administration consists of 20% DMA, 40% polyethylene glycol and 40% saline. […] Mice that were treated 15 minutes later with a second injection consisting of 150 μl of this vehicle died. In addition, concentrations of 5-chloro-2-(2,4-difluoro-3-aminocarbonylphenoxy)methylpyridylthiazole at or above 2.2 mg/ml in this vehicle were not completely dissolved and existed as a suspension (in a 28 g mouse this would be 15.7 mg/kg). A number of other formulations with 5-chloro-2-(2,4-difluoro-3-aminocarbonylphenoxy)methyl benzothiazole were tried, such as 20% DMA, 40% proplyeneglycol in 8% Cremophor-EL. […] Because of the limited solubility and the absence of a suitable vehicle, the literature study where it was reported that a 30 mg/kg dose of 5-chloro-2-(2,4-difluoro-3-aminocarbonylphenoxy)methylpyridylthiazole was delivered to mice in a single injection could not be repeated. […] In some instances the addition of 10-30% propylene glycocol did allow for greater retention of solubility of the test compounds. Example 4 was also found to formulate well at a 2.0 mg/ml concentration in 10 mM malic acid with 20% propylene glycol and with 10 mM p-toluenesulphonate alone. Example 6 did formulate well in 10 mM citrate alone at a concentration of 2.0 mg/ml. […]

Another data set relates to MSSA. The data set can be described thus: Test A antibacterial assay, broth microdilution MIC. The settings on record: Staphylococcus aureus, growth read after 24 to 48 hours at OD 600 nm. The class given is cell-based. As for the experimental part:
Test A. Antibacterial Assay. Antibacterial activity can be determined as per Clinical and Laboratory Standards Institute (CLSI) guidelines using a broth microdilution assay in which log-phase bacteria are grown at 37° C. in appropriate medium containing two-fold serial dilutions of a compound to yield final concentrations ranging from 256 to 0.06 μg/mL. For determination of minimal inhibitory concentration (MIC) values, bacterial growth is monitored after 24 to 48 hours by measuring optical density at 600 nm.

Data set [2] has as its system Bacillus subtilis FG347 bacteria. Put plainly: Test C FtsZ Z-ring assay (GFP-ZapA fluorescence microscopy). Type of data set: cell-based. The following applies: compound at 3 μg/mL. As for the experimental part: Test C. FtsZ Z-Ring Assay.
The impact of a compound on FtsZ Z-ring formation can be determined using a strain of Bacillus subtilis (FG347) that expresses a green fluorescent protein (GFP)-ZapA fusion protein upon induction with xylose. ZapA is known to associate with FtsZ Z-rings in B. subtilis and, thus, serves as a marker for Z-ring formation. In this assay, log-phase FG347 bacteria are treated with differing concentrations of compound for time periods ranging from 1 to 6 hours. At each time point, aliquots are taken from each culture and then viewed with a fluorescence microscope.
Examples 4 and 6-8 were evaluated for their impact on the polymerization of Staphylococcus aureus FtsZ. […] In addition, Example 5 and 7 were also examined for their impact on FtsZ Z-ring formation in Bacillus subtilis FG347 bacteria. […] These collective results highlight the compounds of the invention as FtsZ-targeting antibacterial agents.

≈ marks a conversion by molar mass, not a printed value.

As to `NC(=O)c1c(F)ccc(OCc2nc3cc(Cl)ccc3s2)c1F` [5-chloro-2-(2,4-difluoro-3-aminocarbonylphenoxy)methyl benzothiazole], the “outcome of mice treated with the formulation” value in data set [1] is on record as “died within a few minutes”.
`CN(C)/C=N/C(=O)c1c(F)ccc(OCc2nc3cc(Cl)cnc3s2)c1F` [Example 5] displayed an MIC against MSSA of 0.25 mg/L (≈ 0.609 µM). In data set [2], the bacterial morphology induced entry is recorded as “elongated, filamentous morphology” and the “impact on FtsZ Z-ring formation” value was “inhibit FtsZ Z-ring formation”.
Turning to `O=C(NCN1CCOCC1)c1c(F)ccc(OCc2nc3cc(Cl)cnc3s2)c1F` [Example 7], inhibition of growth in the data set with MSSA (MIC) required 0.5 mg/L (≈ 1.1 µM). Further, in data set [2], the bacterial morphology induced result is “elongated, filamentous morphology” and the “impact on FtsZ Z-ring formation” value was “inhibit FtsZ Z-ring formation”.
